These results are taken from patent publication US20260207633A1, “COMPOSITION COMPRISING POLAR LIPIDS AND METHOD OF MAKING SAME” (VAXA TECHNOLOGIES LTD, priority 2021, published 2026).

Series [1] deals with individuals with insomnia. To be noted: cited from earlier work.
In series [2] the test system is participants with poor sleeping quality (PSQI 11-13). Kind of series: Sleep quality tracked monthly with the Pittsburgh Sleep Quality Index (PSQI), 6 groups of 3 participants. It counts as in vivo, human. To be noted: for PSQI M3: global PSQI score at month 3; for PSQI M3 / PSQI M4: With CBD (daily dosage per group, the 2nd table r16-r22); for PSQI M4: global PSQI score at month 4; for ΔPSQI (%): improvement of PSQI from M0 to M4. As to the method:
Some experiment showing the effect of the combination of CBD and four different omega-3 compounds (Fish Oil (Non-polar DHA+EPA), Fish oil (Non-polar EPA), Schizochytrium Oil (Non-Polar DHA), Nannochloropsis Oil (polar EPA)) were conducted. Daily dosage of omega 3 (DHA and/or EPA) was […].
Materials: CBD: Fish oil (non-polar DHA+EPA), Schizochytrium Oil (non-polar DHA), Nannochloropsis Oil (polar-EPA), Fish oil (non-polar EPA).
Experimental Design: Sleep quality was the measured in this study, as an efficacy indication. The experiment included 6 groups (3 participants per group) 8 women and 10 men, with similar Pittsburgh Sleep Quality Index (PSQI) rating (11-13), indicating poor sleeping quality. The average age for the participants was 37.2. All 18 participants completed sleep assessments at the onset of CBD treatment and at the monthly follow-ups.
All participants were given CBD and/or Omega 3 every evening, after dinner, per table 1 below. Sleep quality was tracked on a monthly basis, for a period of up to 4 months, using the PSQI. This Index is a self-report measure that assesses the quality of sleep during a 1-month period. […] The PSQI measures several different aspects of sleep, offering seven component scores and one composite score. The component scores consist of subjective sleep quality, sleep latency (i.e., how long it takes to fall asleep), sleep duration, habitual sleep efficiency (i.e., the percentage of time in bed that one is asleep), sleep disturbances, use of sleeping medication, and daytime dysfunction.
Each item is weighted on a 0-3 interval scale. The global PSQI score was calculated by totaling the seven component scores, providing an overall score ranging from 0 to 21, where lower scores denote a healthier sleep quality. A higher number indicates more sleep-related concerns. A score of 5 or greater indicates a “poor sleeper”.

As to `C=C(C)[C@@H]1CCC(C)=C[C@H]1c1c(O)cc(CCCCC)cc1O` [CBD, Cannabidiol], in series [1] (high-dose (160 mg/day) CBD), the “frequency of arousals during the night” value was “decreased the frequency of arousals during the night” and the total sleep time entry is on record as “increased total sleep time”. Also, in series [1] (low-dose CBD), the wakefulness result is “increased wakefulness”.

In the case of `C=C(C)[C@@H]1CCC(C)=C[C@H]1c1c(O)cc(CCCCC)cc1O` [Group A, Cannabidiol], in series [2] (comparison between groups), the “effect on PSQI score / sleep quality, in words” value is listed as “more efficient that low-dose CBD in improving PSQI score”. Further, in series [2], the “PSQI M3” value worked out at 6.7, the “PSQI M4” value is listed as 4.6 and the “ΔPSQI (%)” value worked out at 62%. Further, the Sedation entry in series [2] (sedation effect Y/N during CBD treatment, listed as High-dose CBD) is “had a sedation effect”.

As to `C=C(C)[C@@H]1CCC(C)=C[C@H]1c1c(O)cc(CCCCC)cc1O` [Group B, Cannabidiol], in series [2], the “PSQI M3” value is 11.3, the “PSQI M4” value is reported as 9.3 and the “ΔPSQI (%)” value is 24%. Moreover, the “improvement of PSQI score, months 3-4” value in series [2] (months with CBD) is recorded as ~ 18%.
